Data: patent US8906889B2, “C-3 cycloalkenyl triterpenoids with HIV maturation inhibitory activity” (priority 2012, dated 2014)

What follows are molecules tested on recombinant NL4-3 virus (Renilla luciferase, Gag P373S) (assay: HIV cell culture assay (luciferase reporter, MT-2 cells)). Conditions: Renilla, NL43, MT-2 cells infected for 4-5 days with NLRluc recombinants; luciferase activity.
Type: cell-based
Procedure: MT-2 cells and 293T cells were obtained from the NIH AIDS Research and Reference Reagent Program. MT-2 cells were propagated in RPMI 1640 media supplemented with 10% heat inactivated fetal bovine serum, […]. The 293T cells were propagated in DMEM media supplemented with 10% heat inactivated fetal bovine serum (FBS), 100 units/ml penicillin G and 100 μg/ml streptomycin. The proviral DNA clone of NL4-3 was obtained from the NIH AIDS Research and Reference Reagent Program. A recombinant NL4-3 virus, in which a section of the nef gene from NL4-3 was replaced with the Renilla luciferase gene, was used as a reference virus. In addition, residue Gag P373 was converted to P373S. Briefly, the recombinant virus was prepared by transfection of the altered proviral clone of NL4-3. Transfections were performed in 293T cells using LipofectAMINE PLUS from Invitrogen (Carlsbad, Calif.), according to manufacturer's instruction. The virus was titered in MT-2 cells using luciferase enzyme activity as a marker. Luciferase was quantitated using the Dual Luciferase kit from Promega (Madison, Wis.), with modifications to the manufacturer's protocol. The diluted Passive Lysis solution was pre-mixed with the re-suspended Luciferase Assay Reagent and the re-suspended Stop & Glo Substrate (2:1:1 ratio). Fifty (50) μL of the mixture was added to each aspirated well on assay plates and luciferase activity was measured immediately on a Wallac TriLux (Perkin-Elmer). Antiviral activities of inhibitors toward the recombinant virus were quantified by measuring luciferase activity in cells infected for 4-5 days with NLRluc recombinants in the presence serial dilutions of the inhibitor.

How did the EC50 turn out when C=C(C)[C@@H]1CC[C@]2(NCCN3CCC(S(C)(=O)=O)CC3)CC[C@]3(C)[C@H](CC[C@@H]4[C@@]5(C)CC=C(C6=CCC(C#N)(C(=O)O)CC6)C(C)(C)[C@@H]5CC[C@]43C)[C@@H]12 (mixture of isomers) [Example A6, 1-cyano-4-((1R,3aS,5aR,5bR,7aR,11aS,11bR,13aR,13bR)-5a,5b,8,8,11a-pentamethyl-3a-((2-(4-(methylsulfonyl)piperidin-1-yl)ethyl)amino)-1-(prop-1-en-2-yl)-2,3,3a,4,5,5a,5b,6,7,7a,8,11,11a,11b,12,13,13a,13b-octadecahydro-1H-cyclopenta[a]chrysen-9-yl)cyclohex-3-enecarboxylic acid] was run?
Its EC50 is 6.18 nM.

For C=C(C)[C@@H]1CC[C@]2(NCCN3CCC(S(C)(=O)=O)CC3)CC[C@]3(C)[C@H](CC[C@@H]4[C@@]5(C)CC=C(C6=CCC(Cl)(C(=O)O)CC6)C(C)(C)[C@@H]5CC[C@]43C)[C@@H]12 (mixture of isomers) [Example A8, 1-chloro-4-((1R,3aS,5aR,5bR,7aR,11aS,11bR,13aR,13bR)-5a,5b,8,8,11a-pentamethyl-3a-((2-(4-(methylsulfonyl)piperidin-1-yl)ethyl)amino)-1-(prop-1-en-2-yl)-2,3,3a,4,5,5a,5b,6,7,7a,8,11,11a,11b,12,13,13a,13b-octadecahydro-1H-cyclopenta[a]chrysen-9-yl)cyclohex-3-enecarboxylic acid], which EC50 is on record?
The EC50 was 2.42 nM.

Which EC50 does the source give for C=C(C)[C@@H]1CC[C@]2(NCCN3CCC(S(C)(=O)=O)CC3)CC[C@]3(C)[C@H](CC[C@@H]4[C@@]5(C)CC=C(C6=CCC(CCO)(C(=O)O)CC6)C(C)(C)[C@@H]5CC[C@]43C)[C@@H]12 (mixture of isomers) [Example A11] here?
Its EC50 is 2.65 nM.

Which EC50 does the source give for C=C(C)[C@@H]1CC[C@]2(NCCN3CCC(S(C)(=O)=O)CC3)CC[C@]3(C)[C@H](CC[C@@H]4[C@@]5(C)CC=C(C6=CCC(CO)(C(=O)O)CC6)C(C)(C)[C@@H]5CC[C@]43C)[C@@H]12 (mixture of isomers) [Example A13, 1-(hydroxymethyl)-4-((1R,3aS,5aR,5bR,7aR,11aS,11bR,13aR,13bR)-5a,5b,8,8,11a-pentamethyl-3a-((2-(4-(methylsulfonyl)piperidin-1-yl)ethyl)amino)-1-(prop-1-en-2-yl)-2,3,3a,4,5,5a,5b,6,7,7a,8,11,11a,11b,12,13,13a,13b-octadecahydro-1H-cyclopenta[a]chrysen-9-yl)cyclohex-3-enecarboxylic acid] here?
The EC50 was 0.301 nM.

C=C(C)[C@@H]1CC[C@]2(NCCN3CCS(=O)(=O)CC3)CC[C@]3(C)[C@H](CC[C@@H]4[C@@]5(C)CC=C(C6=CC(CC(=O)O)CC6)C(C)(C)[C@@H]5CC[C@]43C)[C@@H]12 (mixture of isomers) [Example A15] was tested. Which EC50 did it give?
The EC50 was 0.547 nM.

For C=C(C)[C@@H]1CC[C@]2(NCCN3CCS(=O)(=O)CC3)CC[C@]3(C)[C@H](CC[C@@H]4[C@@]5(C)CC=C(C6=CC7C(C6)C7C(=O)O)C(C)(C)[C@@H]5CC[C@]43C)[C@@H]12 (mixture of isomers) [Example A18, 3-((1R,3aS,5aR,5bR,7aR,11aS,11bR,13aR,13bR)-3a-((2-(1,1-dioxidothiomorpholino)ethyl)amino)-5a,5b,8,8,11a-pentamethyl-1-(prop-1-en-2-yl)-2,3,3a,4,5,5a,5b,6,7,7a,8,11,11a,11b,12,13,13a,13b-octadecahydro-1H-cyclopenta[a]chrysen-9-yl)bicyclo[3.1.0]hex-2-ene-6-carboxylic acid], which EC50 is on record?
The EC50 was 2.26 nM.
